Experimental data taken from patent publication US20210323977A1, “PYRROLIDINYL AMIDE COMPOUNDS FOR THE TREATMENT OF AUTOIMMUNE DISEASE” (Hoffmann-La Roche Inc., priority 2018, published 2021).

Target: T1, human TLR8 (Homo sapiens, UniProt Q9NR97)
T1 sequence (Q9NR97 27-1041): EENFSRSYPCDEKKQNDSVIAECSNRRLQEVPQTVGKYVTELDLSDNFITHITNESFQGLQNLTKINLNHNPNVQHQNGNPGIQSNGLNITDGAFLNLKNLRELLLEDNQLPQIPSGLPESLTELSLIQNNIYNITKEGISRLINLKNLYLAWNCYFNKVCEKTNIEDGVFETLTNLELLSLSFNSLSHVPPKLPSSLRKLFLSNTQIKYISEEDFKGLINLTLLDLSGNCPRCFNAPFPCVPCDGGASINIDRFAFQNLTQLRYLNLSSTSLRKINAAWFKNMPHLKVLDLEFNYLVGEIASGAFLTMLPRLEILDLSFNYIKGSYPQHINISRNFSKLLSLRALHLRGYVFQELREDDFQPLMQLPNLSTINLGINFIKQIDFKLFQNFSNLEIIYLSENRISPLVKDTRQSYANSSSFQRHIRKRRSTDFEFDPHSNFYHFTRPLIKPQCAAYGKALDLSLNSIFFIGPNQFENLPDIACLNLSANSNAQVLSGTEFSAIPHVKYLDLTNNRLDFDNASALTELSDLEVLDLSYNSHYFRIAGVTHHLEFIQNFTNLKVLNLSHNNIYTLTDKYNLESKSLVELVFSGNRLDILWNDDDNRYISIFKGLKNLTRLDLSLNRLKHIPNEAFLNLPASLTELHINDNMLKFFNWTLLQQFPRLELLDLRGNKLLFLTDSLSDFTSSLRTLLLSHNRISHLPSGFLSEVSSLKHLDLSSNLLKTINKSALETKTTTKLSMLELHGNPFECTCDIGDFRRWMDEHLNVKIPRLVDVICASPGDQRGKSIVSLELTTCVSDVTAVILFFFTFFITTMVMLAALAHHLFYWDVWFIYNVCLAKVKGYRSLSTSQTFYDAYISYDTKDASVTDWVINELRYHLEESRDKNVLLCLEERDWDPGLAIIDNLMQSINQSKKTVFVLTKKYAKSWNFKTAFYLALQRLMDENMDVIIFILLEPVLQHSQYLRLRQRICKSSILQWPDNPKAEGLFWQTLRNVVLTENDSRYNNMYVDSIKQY
Test: HEK293-Blue-hTLR-8 cells assay
Assay type: cell-based
Details: HEK293-Blue-hTLR8 cells, SEAP reporter, R848 stimulation, 20 hrs
From the text: HEK293-Blue-hTLR-8 Cells Assay:
A stable HEK293-Blue-hTLR-8 cell line was purchased from InvivoGen (Cat. #: hkb-htlr8, San Diego, Calif., USA). These cells were originally designed for studying the stimulation of human TLR8 by monitoring the activation of NF-κB. A SEAP (secreted embryonic alkaline phosphatase) reporter gene was placed under the control of the IFN-β minimal promoter fused to five NF-κB and AP-1-binding sites. The SEAP was induced by activating NF-κB and AP-1 via stimulating HEK-Blue hTLR8 cells with TLR8 ligands. Therefore the reporter expression was declined by TLR8 antagonist under the stimulation of a ligand, such as R848, for incubation of 20 hrs. The cell culture supernatant SEAP reporter activity was determined using QUANTI-Blue™ kit (Cat. #: rep-qb1, Invivogen, San Diego, Ca, USA) at a wavelength of 640 nm, a detection medium that turns purple or blue in the presence of alkaline phosphatase.
HEK293-Blue-hTLR8 cells were incubated at a density of 250,000-450,000 cells/mL in a volume of 170 μL in a 96-well plate in Dulbecco's Modified Eagle's medium (DMEM) containing 4.5 g/L glucose, 50 U/mL penicillin, […], […], 2 mM L-glutamine, 10% (v/v) heat-inactivated fetal bovine serum with addition of 20 μL test compound in a serial dilution in the presence of final DMSO at 1% and 10 sL of 60 uM R848 in above DMEM, perform incubation under 37° C. in a CO2 incubator for 20 hrs. Then 20 μL of the supernatant from each well was incubated with 180 sL Quanti-blue substrate solution at 37° C. for 2 hrs and the absorbance was read at 620˜655 nm using a spectrophotometer. The signalling pathway that TLR8 activation leads to downstream NF-κB activation has been widely accepted, and therefore similar reporter assay was modified for evaluating TLR8 antagonist.

Structure (SMILES)	IC50
N#Cc1ccc(N2CC(C(=O)NCC3CNCCO3)C3(CC3)C2)c2nccnc12 (centres unmarked) [Example 13, 5-(8-Cyanoquinoxalin-5-yl)-N-(morpholin-2-ylmethyl)-5-azaspiro[2.4]heptane-7-carboxamide]	48 nM
N[C@H]1CC[C@H](NC(=O)C2CN(c3ccc(C(F)(F)F)c4nccnc34)CC23CC3)CC1 (some centres unmarked) [Example 24, N-(4-aminocyclohexyl)-5-[8-(trifluoromethyl)quinoxalin-5-yl]-5-azaspiro[2.4]heptane-7-carboxamide]	175 nM
NC1CC(CNC(=O)C2CN(c3ccc(C(F)(F)F)c4nccnc34)CC23CC3)C1 (centres unmarked) [Example 31, N-[(3-aminocyclobutyl)methyl]-5-[8-(trifluoromethyl)quinoxalin-5-yl]-5-azaspiro[2.4]heptane-7-carboxamide]	167 nM
N#Cc1ccc(N2CC(C(=O)NC3CCCNCC3)C(C(F)(F)F)C2)c2cccnc12 (single isomer, unassigned) [Example 30B, N-(azepan-4-yl)-1-(8-cyano-5-quinolyl)-4-(trifluoromethyl)pyrrolidine-3-carboxamide]	173 nM
CN1CCC(NC(=O)C2CN(c3ccc(C#N)c4ncccc34)CC23CC3)CC1 (single isomer, unassigned) [Example 41A, 5-(8-Cyano-5-quinolyl)-N-(1-methyl-4-piperidyl)-5-azaspiro[2.4]heptane-7-carboxamide]	191 nM
